These results are taken from US20200017771A1, “MEANS AND METHODS FOR LIGNIN PYROLYSIS” (UNIVERSITAET DES SAARLANDES, priority 2017, published 2020).

Usually Km stands for the substrate concentration at which the rate is half of its maximum.

For test [1], the system named is Corynebacterium glutamicum LIMA-1. Put plainly: Kinetics and stoichiometry of MA production from aromatics, batch shake flask, LIMA-1. It counts as cell-based. The method, then:
(§1) C. glutamicum was grown in baffled shake flasks with 10% filling volume at 30° C. and 230 rpm on an orbital shaker (Multitron, Infors AG, Bottmingen, Switzerland, 5 cm shaking diameter). The cultivation procedure involved one pre-culture in complex medium (37 g L^−1 BHI) followed by another pre-cultivation and then by the main cultivation, both in minimal medium (Kind et al., 2013. Metab. Eng. 15, 184-95.), which contained the following salts and vitamins per liter: NaCl, 0.055 g CaCl2.H2O, 0.2 g MgSO4.7H2O, 15 g (NH4)2SO4, 24.98 g K2HPO4, 7.7 g KH2PO4, 20 mg FeSO4.7 H2O, 0.5 mg biotin, 1 mg thiamine.HCl, 30 mg 3,4-dihydroxybenzoic acid and 10 mL of a 100× trace element solution (Vallino and Stephanopoulos., 1993. Biotechnol. Bioeng. 41, 633-646). […] The different medium ingredients were combined at room temperature freshly before use. The pH was kept constant at 7.0±0.2 by manual addition of 2 M NaOH. All cultures were conducted as biological triplicate.
(§2) A diode array detector was used for detection of MA (260 nm) and the aromatics (210 nm). The quantification of glucose was carried out by isocratic HPLC (Agilent 1260 Infinity Series, Waldbronn, Germany). The separation was conducted on an Aminex HPX-87H column (300×7.8 mm; Bio-Rad, Munich, Germany) at 55° C. As mobile phase, 3.5 mM H2SO4 was used at a flow rate of 0.8 mL min^−1. The refraction index was used for detection. The concentration of cell dry mass (CDM) was calculated from the measured optical density (OD660) using a correlation factor of CDM (g/L)=0.32×OD660 (Rohles et al., 2016. Microb. Cell Fact. 15, 154). The exact monitoring of the cell concentration during the intracellular metabolite sampling and the above correlation allowed to relate the obtained metabolite levels to the CDM (μmol gCDM^−1). The correlation between the cytoplasmic volume and the CDM (1.95 mL gCDM^−1) was used to express intracellular concentrations in mM (Gutmann et al., 1992. Biochim. Biophys. Acta. 1112, 115-23).

Test [2] deals with Amycolatopsis sp. ATCC 39116. Put plainly: Utilization of aromatics as sole source of carbon (growth, OD600). The format is cell-based. Conditions: 2 mM substrate as sole source of carbon in mineral salt medium; OD600 after 40 hours. As for the experimental part: For genetic engineering work, E. coli strains were grown in liquid Luria-Bertani (LB) medium or on solid LB medium, which additionally contained 20 g L^−1 agar (Becton Dickinson, Heidelberg, Germany). For conjugation, A. species ATCC 39116 was grown in liquid GYM medium, containing per liter: 4 g glucose, 4 g yeast extract (Becton Dickinson), and 10 g malt extract (Becton Dickinson). For sporulation and for cloning purposes, solid GYM medium, additionally containing 20 g L^−1 agar (Becton Dickinson), was used. For the pre-culture and the main culture in growth and production studies, a mineral medium (pH 7.2) was used, which contained per liter: 4.5 g Na2HPO4*7H2O, 3.0 g (NH4)2SO4, 1.0 g KH2PO4, 200 mg NaCl, 200 mg MgSO4.7H2O, 50 mg CaCl2.2H2O, 2 mg ZnSO4.7H2O, 1.2 mg MnCl2.4H2O, 0.4 mg CoCl2.6H2O, 0.2 mg NaMoO4.2H2O, 0.2 mg CuSO4.5H2O. […] For direct MA production from pre-treated lignin, appropriate amounts of the obtained hydrolysate (see below) were added. For plasmid maintenance, kanamycin (50 μg mL^−1) or apramycin (50 μg mL^−1) were added, respectively, when needed. In addition, 5-Bromo-4-chloro-1H-indol-3-yl β-D-gluco-pyranosiduronic acid (X-Gluc) was added to selection agar plates (40 μg mL^−1) for blue white screening.
(§3) Amycolatopsis was cultivated in baffled shake flasks, filled to 10% with liquid medium. Single colonies from agar plates, incubated for 24 h at 37° C., were used as inoculum for the first pre-culture. From there, cells were harvested during the exponential growth by centrifugation (5 min, 8800 xg, and 37° C.), and used afterwards as inoculum for the main culture. All shake flask cultivations were conducted in triplicate at 37° C. and 230 rpm on an orbital shaker (Multitron, Infors AG, Bottmingen, Switzerland).
The wildtype was cultivated in minimal medium on a range of aromatics, reflecting a spectrum of potential lignin-derivable raw materials.

Test [3] deals with catechol-1,2-dioxygenase (CatA) (Corynebacterium glutamicum, UniProt Q8NN11). The test is described as follows: Catechol-1,2-dioxygenase (CatA) activity and kinetics in crude cell extracts. The format is biochemical. As for the experimental part:
Crude cell extracts were prepared from exponentially growing cells by mechanical cell disruption. Cell harvest was carried out as previously described (Buschke et al., 2011. Biotechnol. J. 6, 306-17). Aliquots of 1 mL cell suspension were transferred into FastPrep-24 vials (MP Biomedicals, Illkirch-Graffenstaden, France), containing silica beads (Ø 0.1 mm). Cell disruption was carried out in 2×30 sec cycles at 5,000 rpm (Precellys-24, Peqlab, Hannover, Germany), including a 5 minute cooling pause on ice. The extract was also chilled on ice after the disruption. Removal of cell debris and protein quantification was performed as previously described (Becker et al., 2009. Appl. Environ. Microbiol. 75, 7866-9). […] The formation of MA (c=[…]) was monitored via the change in absorbance at 260 nm (Guzik et al., 2013. Int. J. Gen. Mol. Microbiol. 103, 1297-1307). […] The kinetic parameters of the enzyme were obtained by fitting the experimental data to the Michaelis-Menten type kinetic equation (OriginLab, Northhampton, Mass., USA). The protein content in the crude cell extract was quantified, using bovine serum albumin as standard (Pierce BCA Protein Assay Kit, Thermo Fisher Scientific).

Test [4] concerns Corynebacterium glutamicum LIMA-2. Put plainly: Kinetics and stoichiometry of MA production from catechol, batch shake flask, LIMA-2. The following applies: only 10 mM catechol. It counts as cell-based. The method, then:
as §1, §2

The subject of test [5] is catechol dioxygenase (CatA). The test is described as follows: Substrate specificity of catechol dioxygenase in cell extract. The format is biochemical, Amycolatopsis species ATCC 39116. Conditions: for Specific activity: 20 μM substrate, MA formation at 260 nm. As for the experimental part:
The cells were harvested by centrifugation, washed in 60 mM Tris-HCl buffer (pH 8.2), and disrupted in pre-packed lysis tubes (0.1 mm silica spheres, Lysing Matrix B, MP Biomedicals, Heidelberg, Germany), using three intervals of disruption in a ribolyzer (Precellys-24, Peq Lab, Hannover, Germany, 3×30 s, 6 m s^−1) with […] on ice in between. Removal of cell debris and protein quantification was performed as previously described (Becker et al., 2009. Appl. Environ. Microbiol. 75, 7866-9). […] The reaction was monitored on-line via the change in absorbance at 260 nm, reflecting the accumulation of MA (c=16,800 M^−1 cm^−1) (Jimenez et al., 2014. Microbiol. 16, 1767-78). […] Controls without cell extract and without substrate were included.
Subsequently, GC-MS analysis of pure MA and of lyophilized culture supernatant from a culture on o-cresol was conducted. […] It was now interesting to see, how this product was actually derived.

For test [6], the system named is Corynebacterium glutamicum LIMA-1. The format is cell-based. The following applies: glucose as growth substrate; 24 hours. As for the experimental part:
C. glutamicum was grown at 1 mL-scale in a micro bioreactor (BioLector I, m2plabs, Baesweiler, Germany), using 48-well flower plates. […] All cultures were conducted as biological triplicate.
A set of growth experiments was conducted to study potential inhibitory effects of the compounds involved on growth of the producing strains.

Test [7] relates to Amycolatopsis sp. ATCC 39116. Put plainly: Growth of wildtype on guaiacol as sole source of carbon. The format is cell-based. As for the experimental part: as §3
The cell concentration was determined in duplicate as optical density at 600 nm (OD600). The cell dry mass (CDM) was determined gravimetrically in triplicate. In short, 20 mL culture broth was filtered (Whatman cellulose filter, Grade 3, GE-Healthcare Life Sciences, Little Chalfont, UK), washed three times, and dried to constant weight (HB43-S, Mettler-Toledo, Columbus, Ohio, UA). The correlation factor was CDM [g L^−1]=0.45×OD600.
The capability to use guaiacol was found most relevant, given the huge importance of the aromatic as the dominant building block of softwood lignin, and was therefore studied now in more detail. The wildtype was found robust and tolerated elevated levels of guaiacol. Concentrations up 25 mM were utilized (FIG. 25). […] On a quantitative basis, MA reached a level of 0.3 mM, which represented about 5% of the initially added guaiacol. […]

Where [8] appears, read: LIMA-1, initial 20 mM benzoate, 10 mM catechol, 5 mM phenol, glucose added.
[9] abbreviates: column LIMA-1, 10 mM catechol plus 2 mM benzoate as inducer.

Like-named read-outs stand apart in the source and are kept apart here.

Sequence of catechol-1,2-dioxygenase (CatA) (Q8NN11 entry or part of it): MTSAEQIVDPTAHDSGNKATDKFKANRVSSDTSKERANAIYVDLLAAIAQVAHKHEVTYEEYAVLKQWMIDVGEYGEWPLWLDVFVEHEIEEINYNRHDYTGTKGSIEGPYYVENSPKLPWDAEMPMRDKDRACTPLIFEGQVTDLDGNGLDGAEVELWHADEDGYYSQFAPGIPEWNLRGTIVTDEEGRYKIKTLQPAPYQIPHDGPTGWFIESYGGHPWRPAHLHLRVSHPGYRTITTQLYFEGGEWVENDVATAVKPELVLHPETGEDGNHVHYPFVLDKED

Regarding `Oc1ccccc1O` [Catechol], the “YMA/Aro, MA yield” value in test [1] (setting [8]) is given as 0.99 ± 0.02 mol mol^−1; in test [1] (LIMA-1, initial 20 mM benzoate, 10 mM catechol, 5 mM phenol, glucose added, listed as catechol), 1.00±0.01 mol mol^−1; in test [4], 1.00 ± 0.01 mol mol^−1. Moreover, the “YX/Glc, biomass yield” value in test [1] (setting [8]) turned out to be 0.38 ± 0.01 g/g; in test [4], 0.40 ± 0.02 g/g. For the same molecule, the “qGlc, specific glucose uptake rate” value was determined as 0.3 ± 0.0 mmol/g/h in test [1] (setting [8]), 0.7 ± 0.0 mmol/g/h in test [1] (setting [9]) and 0.4 ± 0.0 mmol/g/h in test [4]. Also, the “qMA, specific MA production rate” value in test [1] (setting [8]) was found to be 0.2 ± 0.0 mmol/g/h; in test [1] (setting [9]), 5.2 ± 0.4 mmol/g/h; in test [4] it was 3.5 ± 0.1 mmol/g/h. In addition, in test [2], the Growth entry is reported as “++ (1 > OD > 0.5)”. In test [3] (read-out: KM-value for catechol, crude extract of benzoate-grown cells, Michaelis-Menten fit), the Km was determined as 2.3 µM. The Specific activity in test [5] came out at 640 ± 19 mU mg^−1; in test [5] (listed as catechol), 640 mU mg^−1.
Consider `O=C(O)c1ccccc1` [Benzoic acid], for which, in test [1], the “YMA/Aro, MA yield” value is on record as 1.00 ± 0.02 mol mol^−1; the “YX/Glc, biomass yield” value was found to be 0.46 ± 0.01 g/g; the “qGlc, specific glucose uptake rate” value was 0.5 ± 0.0 mmol/g/h; the “qMA, specific MA production rate” value was determined as 3.3 ± 0.1 mmol/g/h. Besides, the “level up to which the mutant grew (highest concentrations tested)” value in test [6] is given as ≤ 80 mM. Moreover, the Growth result in test [2] was “+++ (OD > 1)”. In addition, in test [3] (LIMA-1 crude extract), the “CatA activity of cells cultivated on the aromatic” value came out at 490 mU mg^−1 and the “fold higher CatA activity versus culture only on glucose” value is recorded as 16 fold.
`Oc1ccccc1` [Phenol]: in test [1], the “YMA/Aro, MA yield” value worked out at 0.95 ± 0.09 mol mol^−1; the “YX/Glc, biomass yield” value worked out at 0.48 ± 0.01 g/g; the “qGlc, specific glucose uptake rate” value turned out to be 0.6 ± 0.0 mmol/g/h; the “qMA, specific MA production rate” value came out at 0.1 ± 0.0 mmol/g/h. The Growth result in test [2] is recorded as “++ (1 > OD > 0.5)”.
Turning to `Cc1cccc(O)c1O` [3-Methyl catechol], the Specific activity in test [5] stood at 470 ± 9 mU mg^−1. Also, the “activity relative to that found for catechol” value in test [5] (catechol replaced by equimolar substrate) was “about 70%”.
Take `COc1ccccc1O` [Guaiacol]: the Growth entry in test [2] was “++ (1 > OD > 0.5)”. Further, the specific growth rate in test [7] (guaiacol as sole carbon source) worked out at 0.30 h⁻¹. For the same molecule, the “concentrations utilized (tolerated) up to” value in test [7] (guaiacol as sole source of carbon, 24 hours) is ≤ 25 mM.
Turning to `O=C(O)/C=C\C=C/C(=O)O` [Cis,cis-muconic acid, (2Z,4Z)-2,4-Hexadienedioate], in test [2], the Growth entry was “+++ (OD > 1)”.
As to `Cc1ccc(O)c(O)c1` [4-Methyl catechol], in test [5], the “accepted as substrate by the enzyme” value is “accepted” and the Specific activity was found to be 380 ± 5 mU mg^−1.
`O=C(O)/C=C/c1ccc(O)cc1` [p-Coumaric acid]: in test [2], the Growth entry was “+++ (OD > 1)”.
The same measure, in the same setting: the value for `Cc1ccccc1` [Toluene] was “+ (0.5 > OD > 0.25)”.
